In patent US20220243177A1, “METHODS OF CULTURING QUIESCENT HEMATOPOIETIC STEM CELLS AND TREATMENT METHODS” (priority 2019, published 2022):

Tests used:
[1] = system: MMP-low and MMP-high LT-HSCs transplanted into lethally irradiated mice; format: in vivo
Procedure: Competitive In Vivo Long-Term Reconstitution Assay: MMP-low and MMP-high HSCs (LSKCD150^+CD48^−, LT-HSC; MMP^low/high) were FACS purified from CD45.1 mice and transplanted at the indicated dose of test cells with 2×10^5 CD45.2 bone marrow cells into lethally irradiated CD45.2 recipients (12 Gy as a split dose, 6.5 and 5.5 Gy, 4 hours apart). Donor (CD45.1) and recipient (CD45.2) mice were 8-12 weeks old. HSC frequency was determined by the limiting dilution assay (Hu & Smith, “ELDA: Extreme Limiting Dilution Analysis for Comparing Depleted and Enriched Populations in Stem Cell and Other Assays,” J. Immunol. Methods 347:7 0-78 (2009), which is hereby incorporated by reference in its entirety) based on the number of mice with […] reconstitution (CD45.1) at 16 weeks.
To assay the effect of glycolytic inhibition of HSCs in a competitive in vivo long-term reconstitution assay: FACS-sorted MMP-low and MMP-high LT-HSCs (CD45.1) were mixed with 2×10^5 CD45.2 total bone marrow cells and injected into lethally irradiated CD45.2 recipients. After 2 days mice were divided into four groups, MMP-low and MMP-high groups treated with PBS or 2-Deoxy-Glucose (2-DG, 1000 mg/kg) every other day for 30 days. Reconstitution of donor CD45.1 cells and lineage distribution were monitored monthly by staining blood cells with antibodies against CD45.1, CD4, CD8 (T), B220 (B), CD11b and Gr-1 (myeloid) cells. For secondary transplantations, 2×10^6 BM cells from primary recipients were transplanted into lethally irradiated secondary recipients. Donor CD45.1 cells contribution and lineage distribution were tracked from the peripheral blood by flow cytometry.

[2] = system: MMP-low and MMP-high HSCs; assay: LT-HSCs maintenance assay (viability, DAPI exclusion); format: cell-based
Procedure: LT-HSCs Maintenance Assay: FACS-purified MMP-low and MMP-high HSCs cells were cultured in serum-free Stemspan medium supplemented with SCF (10 ng/mL) and TPO (20 ng/mL), cultured as single or 1,000 yells or 2,000 cells/well, and treated with ConA (10-100 nM), or 2-Deoxy-Glucose (2-DG; 5-60 mM), α-Cyano-4-hydroxycinnamic acid (CHC, 10 mM), or 0.5% DMSO, incubated at 37° C. for the indicated time. Cells were then washed twice in PBS, re-suspended in PBS containing 1 μg/ml DAPI, and analyzed by flow cytometry after DAPI exclusion.

[3] = system: HSCs of treated mice; assay: In vivo glycolytic inhibition; set-up: species or system mouse
Procedure: In vivo Glycolytic Inhibition. To assess the effect of inhibition of glycolysis on MMP in HSCs, mice received intraperitoneal injections of either PBS or 2-DG 750 mg/kg every other day for 6 days after which total BM cells […] cells were isolated and MMP analyzed by flow cytometry in HSCs.

[4] = system: HSCs (LSK CD150+CD48-); assay: Mitochondrial membrane potential (TMRE) by flow cytometry; format: cell-based, mouse
Procedure: To measure mitochondrial membrane potential (“MMP”), Tetramethylrhodamine ethyl ester perchlorate (“TMRE”, 100 nM), which specifically accumulates within the mitochondrial matrix of live cells, was used in accordance with the manufacturer's instructions. In brief, cells were stained with the probe at 37° C. for 15 minutes post antibody staining, followed by washing and flow cytometry analysis or FACS purification. Probe responsiveness to MMP changes were tested using controls carbonyl cyanide 3-chlorophenylhydrazone (“CCCP”) and oligomycin, which decreased and increased fluorescence of TMRE respectively. MMP-low and MMP-high thresholds were determined as the lowest and highest 25% TMRE intensity HSCs. Reactive oxygen species (“ROS”) were measured using chloromethyl-dichlorodihydrofluorescein diacetate (“CM-H2DCFDA”) fluorescent probe as described in Rimmele et al., “Mitochondrial Metabolism in Hematopoietic Stem Cells Requires Functional FOXO3,”EMBO Rep. 16: 1164-1176 (2015); Yalcin et al., “ROS-Mediated Amplification of AKT/mTOR Signalling Pathway Leads to Myeloproliferative Syndrome in Foxo3(-/-) Mice,” EMBO J. 29: 4118-4131 (2010); and Yalcin et al., “Foxo3 Is Essential for the Regulation of Ataxia Telangiectasia Mutated and Oxidative Stress-mediated Homeostasis of Hematopoietic Stem Cells,” J. Biol. Chem. 283: 25692-25705 (2008), which are hereby incorporated by reference in their entirety. Flow cytometry acquisition was performed on the BD LSRII, while cell sorting was performed on the BD Influx. All flow cytometry analyses and quantification were done using FlowJo 10 (Treestar).

[5] = system: MMP-low and MMP-high HSCs; assay: Glucose uptake assay (2NBDG); format: cell-based, mouse; conditions: STF-31 (10, 20 μM), 18 hours
Procedure: Glucose Uptake Assay: For measurement of glucose uptake, freshly FACS-purified MMP-low and MMP-high HSCs (at least 2,000 cells pooled in average from 8 mice) were cultured immediately in […] of glucose, glutamine, pyruvate free medium containing 100 or 200 μM 2-(n-(7-nitrobenz-2-oxa-1,3-diazol-4-yl amino)-2-deoxyglucose (2-NBD-Glucose, 2NBDG) for 2 hours. Cells were then washed multiple times in PBS, re-suspended in PBS containing 1 μg/ml DAPI, and analyzed by flow cytometry for 2-NBD glucose fluorescence in the FITC channel. In some experiments cells were cultured in StemSpan medium (StemCell Technology) supplemented with SCF (100 ng/ml) and TPO (20 ng/ml), treated with or without STF-31 ([…]), ConA (25, 50 nM), dimethyl alpha ketoglutarate (MOG, 1 mM), methyl pyruvate (MP, 1 mM) or DMSO, incubated at 37° C. in a humidified atmosphere with 5% CO2 for 6 or 18 hours before removing culture medium from each well, washing extensively and adding […] of glucose, glutamine, pyruvate free medium containing […] of 2 NBDG for 2 hours before washing cells multiple times in PBS and analyzing by flow cytometry. Quantification of 2NBDG uptake was measured by the geometric mean fluorescence intensity (“MFI”) as well as % of 2NBDG^+ cells.

[6] = system: MMP-low and MMP-high HSCs; assay: Autophagic vacuole formation / lysosomal localization of mitochondria (confocal immunofluorescence); format: cell-based, mouse; set-up: number of autolysosomes (LC3 co-localization with LAMP1) / co-localization of TOM20 with LAMP1 in MMP-low and MMP-high HSCs: dose or concentration left out as unconfirmed
Excerpt: Immunofluorescence Staining, Imaging, and Analysis—Super Resolution Confocal Microscopy: Images were acquired with a Zeiss LSM 880 confocal microscope equipped with Airyscan Super Resolution Imaging module, using a 100×/1.46 Alpha Plan Apochromat objective lens (Zeiss MicroImaging, Jena, Germany) with “optimal” (Nyquist) XY scaling. Z stacks through the entire cell were acquired at an […] (at least 20 optical sections) using a pixel dwell time of >50 microseconds and field dimensions of […] (20 MMP-low and 20 MMP-high HSCs analyzed). This was followed by Airyscan image processing (set at auto but rarely over 6.2) and analyses using ZEN image acquisition and processing software (ZEN blue/black). Maximum intensity projections shown in the figures were also obtained using ZEN Blue software.
Lysosomal Localization of Mitochondria. FACS-sorted MMP-low and MMP-high HSCs (LSKCD150^+CD48^-MMP-low/-high) were treated with DMSO control or leupeptin […] for 4 hours. HSCs were then fixed and imaged for TOM20 (mitochondria) and LAMP1 (lysosomes).
Autophagic Vacuole Formation. Accumulation of autophagy substrates, Translocase of outer membrane 20 (TOM20) or Map11c3a (LC3), was determined in the presence of amino acid-containing (DMSO) or -starved amino acid-depleted media, v-ATPase inhibitor concanamycin A (ConA 40nM), inhibitor of autophagosome-autolysosome fusion chloroquine (CQ, […]), or protease inhibitor, leupeptin […] following guidelines outlined for study of autophagy (Klionsky et al., “Guidelines for the Use and Interpretation of Assays for Monitoring Autophagy (3rd Edition),” Autophagy 12(1): 1-222 (2016) and Martinez-Lopez et al., “Autophagy Proteins Regulate ERK Phosphorylation,” Nat. Commun. 4: 2799 (2013), which are hereby incorporated by reference in their entirety). In brief, FACS-sorted
MMP-low and MMP- high HSCs were cultured in the presence or absence of indicated inhibitors for 4, 5, or 18 hours following which cells were subjected to immunofluorescence assays for TOM20, LC3 and/or LAMP1 or LAMP2 as described above. Analyses were performed to quantify the turnover of indicated protein in lysosomes by evaluating the accumulation of TOM20 or LC3 in the presence versus absence of an inhibitor. TOM20 and LC3 flux were determined by subtracting the colocalized value of inhibitor-untreated TOM20 or LC3 with LAMP1 from corresponding inhibitor-treated values. Images were captured using a Zeiss LSM880 Airyscan confocal microscope using 100 X objectives (Leica), and percentage colocalization was calculated using the JACoP plugin (NIH ImageJ).
Mitochondrial and Lysosome Morphology: Freshly isolated HSCs were analyzed for mitochondrial morphology. Each individual HSC (150 total) was analyzed by using Arivis Vision 4D software and classified as either fragmented or not fragmented in accordance with number of surfaces. Cells that fulfilled the definition of ‘fragmented’ contained 3 or more individual mitochondrial surfaces (Kask et al., “Fluorescence-intensity Distribution Analysis and Its Application in Biomolecular Detection Technology,” Proc. Natl. Acad. Sci. USA 96(24): 13756-13761 (1999), which is hereby incorporated by reference in its entirety). Lysosomes' fluorescence intensity or area profiling was calculated using ImageJ software enabling the detection of fluorescently labeled […] boundaries (lysosomal marker LAMP1), as reflected by sharp increases or decreases in fluorescence intensity. Channels displaying fluorescence for either mitochondria or lysosomes were thresholded with the IsoData option to delimit the boundaries of mitochondrial networks and lysosome morphology. The resulting outlines were measured using the analyzed particles option to determine the size of distinct particles representing mitochondrial networks or lysosomes. More than 50 cells/condition/experiment were analyzed for lysosomes. […]

[7] = recipients treated with 2-DG 1,000 mg/kg every other day for 30 days, after 4 months

In the case of `O=CC[C@@H](O)[C@H](O)[C@H](O)CO` [2-DG, 2-Deoxy D-Glucose], the “lineage output in recipients of MMP-high HSCs” value ([1]; 2-DG-treated recipients) is reported as “balanced production of blood”, the “systemic effect in the blood of transplanted mice” value ([1]; long-term (up to 16 weeks), normal diet) is reported as “no systemic effect was detected” and the “enhancement of in vivo competitive repopulation ability of MMP-high HSCs” value [1, 7] is reported as “over 70 fold”. The “in vivo competitive repopulation ability of MMP-low HSCs” value [1, 7] was “only subtle effects”, the “effect on MMP-low HSCs (viability)” value ([2]; 2-DG 50 mM, 12 hours) was “did not have much of an effect” and the “death of MMP-high HSCs after 24 h” value ([2]; 2-DG 50 mM, 24 h, not in MMP-low) was “even more pronounced”. For the same compound, the “MMP-high HSCs died” value ([2]; 2-DG 50 mM, within 12 hours) was “over 60%”, the “cellular viability after in vivo treatment” value ([3]; 2-DG 750 mg/kg every other day for 6 days) was “did not have much of an effect” and the “overall MMP levels in long-term HSCs” value ([3]; 2-DG 750 mg/kg every other day for 6 days, intraperitoneal) was “slightly but significantly reduced”. For the same compound, the “glucose uptake in HSCs with the highest MMP levels” value ([3]; in vivo 2-DG, 6 days) was “reduced glucose uptake”.

For `N#CC(C#N)=NNc1cccc(Cl)c1` [CCCP, carbonyl cyanide 3-chlorophenylhydrazone], the “fluorescence of TMRE (probe responsiveness control)” value [4] was “decreased”.

In the case of `N#CC(=Cc1ccc(O)cc1)C(=O)O` [CHC, a-cyano-4-hydroxycinnamate], the “decrease of survival in MMP-high HSCs” value ([2]; 10 mM CHC, 6 hours) is reported as 80% and the “effect on survival of MMP-low HSCs” value ([2]; 10 mM CHC, 6 hours) is reported as “negligible effect”.

`CC(C)(C)c1ccc(S(=O)(=O)NCc2ccc(C(=O)Nc3cccnc3)cc2)cc1` [Glut1 inhibitor, STF-31] was tested, and the “glucose uptake in MMP-high HSCs” value [5] was “decreased glucose uptake”.

`COc1ccc(CCN(C)CCCC(C#N)(c2ccc(OC)c(OC)c2)C(C)C)cc1OC` (stereo not shown) [Verapamil] was tested, and the “TMRE levels or proportion of MMP-low HSCs” value ([4]; Verapamil 25 μM, 50 μM, MRP inhibition) was “did not modulate significantly”.

`CC(=O)N[C@@H](CC(C)C)C(=O)N[C@@H](CC(C)C)C(=O)N[C@H](C=O)CCCNC(=N)N` [leupeptin] was tested, and the “co-localization of TOM20 with LAMP1 in MMP-low and MMP-high HSCs” value ([6]; 4 h) was “enhanced similarly”, the “increase in LC3-positive puncta, MMP-high HSCs” value ([6]; 4 h) was 3.6 fold and the “increase in LC3-positive puncta, MMP-low HSCs” value ([6]; 4 h) was 1.6 fold. The “number of autolysosomes (LC3 co-localization with LAMP1)” value ([6]; 4 h) was “greater number of autolysosomes”, the “autolysosomal degradation (colocalization of LAMP1 with LC3)” value ([6]; ConA 40 nM, leupeptin 100 mM, chloroquine 40 mM, 18 hours, MMP-low and MMP-high HSCs) was “dramatically prevented autolysosomal degradation” and the “size of lysosomes in HSCs” value ([6]; leupeptin, more evident in MMP-high HSCs) was “further increased the size of lysosomes”.

For `CC[C@H]1/C=C/C=C/C[C@@H](C)[C@H](O)[C@@](C)(O)C(=O)[C@@H](C)[C@H](O)[C@@H](C)C(=O)[C@@H](C)[C@H](O)[C@@H](C)/C=C/C(=O)O[C@@H]2[C@H](C)[C@H](CC1)O[C@]1(CC[C@H](C)[C@H](C[C@@H](C)O)O1)[C@H]2C` [oligomycin], the “fluorescence of TMRE (probe responsiveness control)” value [4] was “increased”.
